pEC50: −log10 of the molar value.
Assays:
Type in all cases: cell-based, human
[1] = test system: IGR-Heu tumor cells; assay: Proteasome inhibition: CTL recognition (TNFβ release) of inhibitor-treated IGR-Heu tumor cells; conditions: 10 μM, FIG. 4A
Description: FIG. 4: Processing of the preprocalcitonin16-25 peptide is proteasome- and TAP-independent. A. IGR-Heu target cells were incubated for 2 h at 37° C. in the presence or absence of the proteasome-specific inhibitor epoxomicin, and then Heu161 cells were added. The autologous Heu127 clone, recognizing on IGR-Heu a proteasome-dependent mutated α-actinin-4 peptide, was included as a positive control. TNFβ released in medium after 24 h of culture was measured as above. B. 293-EBNA cells were cotransfected with pCEP4 containing either cDNA 150 (upper panel) or the mutated α-actinin-4 cDNA (lower panel), with pcDNA3.1 containing an HLA-A*0201 construct, and with various amounts of vector pBJi-neo containing IPC47 cDNA. CTL clones Heu161 (upper panel) or Heu127 (lower panel) were then added. Controls included 293-EBNA cells transfected with HLA-A2 or pBJi-neo-IPC47 alone, and incubation of transfectants with either preprocalcitonin or α-actinin-4 peptides. Data shown are representative of four independent experiments.
(§1) TNFβ was detected by measuring the cytotoxicity of the culture medium on TNF-sensitive WEHI-164c13 cells with a MTT colorimetric assay (ESPEVIK & NISSEN-MEYER, J Immunol Methods, 95, 99-105, 1986).
For proteasomes and SP inhibition, 10^6 tumor cells were resuspended in 300 μl of media in the presence or absence of specific inhibitors. […]

[2] = test system: CTL clone Heu161; assay: CTL stimulation (TNF release) by synthetic peptides loaded on HLA-A2+ MZ2-MEL.3.1 melanoma cells
Description: (§2) FIG. 3: Identification of the antigenic peptide recognized by CTL clone Heu161. A. CTL stimulation with purified synthetic peptides. Peptides were loaded on allogeneic HLA-A2^+ MZ2-MEL.3.1 melanoma cells for 60 min at room temperature before addition of CTL clone Heu161. TNF release was measured 16 h later. Empty circles represent the results obtained with peptide SEQ ID NO: 1, full circles represent the results obtained with peptide SEQ ID NO: 2, empty squares represent the results obtained with peptide SEQ ID NO: 24, full squares represent the results obtained with peptide SEQ ID NO: 25 and empty diamonds represent the results obtained with peptide SEQ ID NO: 26. B. Lytic activity of CTL clone on peptide-pulsed cells. ^51Cr-labeled Heu-EBV-B cells were incubated over 60 min with the indicated concentrations of peptides before addition of CTL clone Heu161 at an E/T cell ratio of 10:1. Chromium release was measured after 4 h. Empty circles represent the results obtained with peptide SEQ ID NO: 1, full circles represent the results obtained with peptide SEQ ID NO: 2
as §1
We then prepared a series of calcitonin cDNA fragments truncated at their 5′ end and engineered to contain an initiation codon and a Kozak consensus sequence. […] Further trimming narrowed down the peptide-encoding region to residues 9-38 (FIG. 2B). Among a set of overlapping peptides covering this region, only two were recognized by CTL clone Heu161: VLLQAGSLHA (SEQ ID NO: 1) and LVLLQAGSLHA (SEQ ID NO: 2), which are identical, but with an additional leucine in the latter peptide. […] In a lysis assay, the decamer was slightly more efficient than the 11-mer peptide by a factor of about three (FIG. 3B). We concluded that the optimal antigenic peptide recognized by CTL clone Heu161 was VLLQAGSLHA (SEQ ID NO: 1) or preprocalcitonin16-25. This peptide corresponds exactly to the C-terminal part of the preprocalcitonin signal peptide (LE MOULLEC et al., FEBS Lett, 167, 93-7, 1984).

[3] = test system: CTL clone Heu161; assay: Lytic activity of CTL clone on peptide-pulsed 51Cr-labeled Heu-EBV-B cells; conditions: E/T 10:1, 4 h chromium release, FIG. 3B
Description: as §2
Cytotoxic activity was measured by a conventional 4-h ^51Cr-release assay using triplicate cultures in round-bottomed 96-well plates. Percent specific cytotoxicity was calculated conventionally; SD were <5%. […]

CC[C@H](C)[C@H](NC(=O)[C@H]([C@@H](C)CC)N(C)C(C)=O)C(=O)N[C@H](C(=O)N[C@@H](CC(C)C)C(=O)[C@@]1(C)CO1)[C@@H](C)O [epoxomicin]
effect on recognition by anti-preprocalcitonin CTL clone Heu161 [1]: no effect

VLLQAGSLHA [SEQ ID NO: 1, optimal antigenic peptide recognized by CTL clone Heu161, C-terminal part of the preprocalcitonin signal peptide]
pEC50 ([2]; HLA-A2+ melanoma cells loaded 60 min, TNF release after 16 h, FIG. 3A, read-out: peptide concentration giving half-maximal effect (sensitization to recognition by CTL Heu161)): ~8.00 | recognition of peptide by CTL clone Heu161 ([2]; overlapping synthetic peptides of preprocalcitonin): recognized | efficiency in lysis assay, decamer relative to 11-mer (factor) [3]: about three

— patent publication US8492342B2, “Preprocalcitonin antigen T epitopes” (Institut Gustave Roussy, priority 2007, dated 2013)
